For the assay, the target named is human Nav1.7 (Homo sapiens (Human), UniProt Q15858). The experiment in a line: Nav 1.7 in vitro PatchXpress (PX) assay. Format: cell-based.

pIC50: −log10 of the molar value. Where two headings read alike, the source gives them in different places.

Sequence of human Nav1.7 (Q15858 whole entry): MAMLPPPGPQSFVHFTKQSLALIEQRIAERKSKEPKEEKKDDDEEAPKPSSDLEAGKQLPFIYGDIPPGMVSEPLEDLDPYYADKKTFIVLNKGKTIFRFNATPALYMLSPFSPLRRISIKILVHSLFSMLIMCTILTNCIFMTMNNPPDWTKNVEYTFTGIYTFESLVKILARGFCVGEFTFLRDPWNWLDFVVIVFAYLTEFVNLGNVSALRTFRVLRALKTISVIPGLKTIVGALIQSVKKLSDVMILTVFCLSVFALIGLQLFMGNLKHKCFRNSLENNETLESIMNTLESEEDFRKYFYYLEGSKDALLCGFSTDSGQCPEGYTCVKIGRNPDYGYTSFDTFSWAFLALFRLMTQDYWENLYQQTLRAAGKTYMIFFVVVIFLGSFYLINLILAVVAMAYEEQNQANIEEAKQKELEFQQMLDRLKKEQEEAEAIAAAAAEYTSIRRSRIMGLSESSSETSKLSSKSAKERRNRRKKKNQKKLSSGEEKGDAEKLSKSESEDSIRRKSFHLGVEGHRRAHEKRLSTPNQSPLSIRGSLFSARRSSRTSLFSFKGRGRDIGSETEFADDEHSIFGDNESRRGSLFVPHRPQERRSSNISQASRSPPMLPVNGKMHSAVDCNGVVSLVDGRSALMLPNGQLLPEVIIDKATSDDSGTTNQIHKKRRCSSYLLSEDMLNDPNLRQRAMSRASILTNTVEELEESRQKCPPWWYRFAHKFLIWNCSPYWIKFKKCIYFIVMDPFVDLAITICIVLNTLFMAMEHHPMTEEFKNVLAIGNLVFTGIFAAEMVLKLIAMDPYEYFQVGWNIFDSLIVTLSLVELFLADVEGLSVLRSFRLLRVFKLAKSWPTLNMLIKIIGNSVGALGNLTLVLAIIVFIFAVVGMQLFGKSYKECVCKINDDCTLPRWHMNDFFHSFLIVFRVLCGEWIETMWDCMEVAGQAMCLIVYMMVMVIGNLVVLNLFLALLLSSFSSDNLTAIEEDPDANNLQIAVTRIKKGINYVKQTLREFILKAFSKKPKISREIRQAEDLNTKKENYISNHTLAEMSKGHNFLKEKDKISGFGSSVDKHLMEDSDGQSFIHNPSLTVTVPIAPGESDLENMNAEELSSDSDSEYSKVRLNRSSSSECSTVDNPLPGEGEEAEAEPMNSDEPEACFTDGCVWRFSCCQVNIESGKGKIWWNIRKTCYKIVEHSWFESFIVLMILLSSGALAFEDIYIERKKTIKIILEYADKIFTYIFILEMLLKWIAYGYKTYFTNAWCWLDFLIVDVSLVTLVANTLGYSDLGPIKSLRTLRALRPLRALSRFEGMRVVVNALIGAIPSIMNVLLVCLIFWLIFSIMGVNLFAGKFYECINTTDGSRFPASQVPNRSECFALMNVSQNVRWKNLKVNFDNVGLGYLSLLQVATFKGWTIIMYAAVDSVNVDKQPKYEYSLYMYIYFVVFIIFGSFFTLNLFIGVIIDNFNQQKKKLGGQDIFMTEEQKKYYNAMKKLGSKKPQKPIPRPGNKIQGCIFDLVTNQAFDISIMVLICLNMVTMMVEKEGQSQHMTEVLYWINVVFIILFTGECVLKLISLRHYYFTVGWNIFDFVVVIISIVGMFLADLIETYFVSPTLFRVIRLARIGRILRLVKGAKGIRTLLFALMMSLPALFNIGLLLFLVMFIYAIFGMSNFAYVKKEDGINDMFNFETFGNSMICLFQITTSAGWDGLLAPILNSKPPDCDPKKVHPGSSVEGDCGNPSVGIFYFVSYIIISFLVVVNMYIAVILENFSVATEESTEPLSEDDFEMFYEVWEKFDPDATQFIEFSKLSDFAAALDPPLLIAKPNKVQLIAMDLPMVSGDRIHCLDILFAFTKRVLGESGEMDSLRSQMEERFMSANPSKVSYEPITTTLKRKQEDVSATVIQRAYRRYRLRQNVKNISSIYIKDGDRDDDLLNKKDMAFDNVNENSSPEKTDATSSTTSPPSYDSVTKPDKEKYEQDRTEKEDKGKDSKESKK

What is called pIC50 is the negative decadic logarithm of the IC50, by convention in mol/L. In turn, `CC[C@H](Oc1ncc(-c2cc(F)c(C(=O)NS(C)(=O)=O)cc2C)cc1Cl)c1cccc(Cl)c1` [Example 676, 4-(5-chloro-6-(((1S)-1-(3-chlorophenyl)propyl)oxy)-3-pyridinyl)-2-fluoro-5-methyl-N-(methylsulfonyl)benzamide] had a pIC50 of 7.23.

With `CS(=O)(=O)NC(=O)c1ccc(-c2cnc(Oc3c(F)ccc(F)c3F)c(Cl)c2)c(Cl)c1` [Example 778, 3-chloro-4-(5-chloro-6-(2,3,6-trifluorophenoxy)-3-pyridinyl)-N-(methylsulfonyl)benzamide], the pIC50 (in-vitro Nav 1.7 PX data) is 7.13.

For the compound `COc1cc(C(=O)NS(C)(=O)=O)ccc1-c1cnc(Oc2c(C)cccc2Cl)c(Cl)c1` [Example 327, 4-(5-chloro-6-(2-chloro-6-methylphenoxy)-3-pyridinyl)-3-methoxy-N-(methylsulfonyl)benzamide], the pIC50 is 7.08.

Turning to `CCS(=O)(=O)NC(=O)c1ccc(-c2cnc(O[C@H]3C[C@H]4CC[C@@H]3C4)c(Cl)c2)c(OC)c1` [Example 792, 4-(6-((1R,2S,4S)-bicyclo[2.2.1]hept-2-yloxy)-5-chloro-3-pyridinyl)-N-(ethylsulfonyl)-3-methoxybenzamide], under “in-vitro Nav 1.7 PX data”, the pIC50 was 7.07.

Consider `Cc1cc(C(=O)NS(C)(=O)=O)c(F)cc1-c1ccc(C(F)(F)F)c(Cl)c1` [Example 807, 3′-chloro-5-fluoro-2-methyl-N-(methylsulfonyl)-4′-(trifluoromethyl)-4-biphenylcarboxamide], for which the negative logarithm of the IC50 (pIC50) (in-vitro Nav 1.7 PX data) was 6.38.

`COc1cc(C(=O)NS(C)(=O)=O)ccc1-c1cnc(Oc2ccc(Cl)c(OC(F)(F)F)c2)c(Cl)c1` [Example 373, 4-(5-chloro-6-(4-chloro-3-(trifluoromethoxy)phenoxy)-3-pyridinyl)-3-methoxy-N-(methylsulfonyl)benzamide] showed a pIC50 of 7.18.

Consider `COc1cc(C(=O)NS(C)(=O)=O)c(F)cc1-c1cnc(OC2CCC2)c(Cl)c1` [Example 702, 4-(5-chloro-6-(cyclobutyloxy)-3-pyridinyl)-2-fluoro-5-methoxy-N-(methylsulfonyl)benzamide], for which the pIC50 was 7.16.

Under “in-vitro Nav 1.7 PX data”, `COc1cc(C(=O)NS(C)(=O)=O)c(F)cc1-c1cnc(O[C@H](C)c2ccccc2)c(Cl)c1` [Example 749, 4-(5-chloro-6-((1R)-1-phenylethoxy)-3-pyridinyl)-2-fluoro-5-methoxy-N-(methylsulfonyl)benzamide] showed a negative-log IC50 (pIC50) of 7.03.

On to `CCS(=O)(=O)NC(=O)c1ccc(-c2cnc(Oc3c(F)ccc(F)c3F)c(Cl)c2)c(OC)c1` [Example 791, 4-(5-chloro-6-(2,3,6-trifluorophenoxy)-3-pyridinyl)-N-(ethylsulfonyl)-3-methoxybenzamide], for which, for the setting “in-vitro Nav 1.7 PX data”, the pIC50 is 7.40. This pIC50 is 0.37 log units higher than that of the compound before.

Consider `COc1cc(C(=O)NS(C)(=O)=O)ccc1-c1cnc(Oc2cc(Cl)cc(Cl)c2)c(C(F)F)c1` [Example 382, 4-(6-(3,5-dichlorophenoxy)-5-(difluoromethyl)-3-pyridinyl)-3-methoxy-N-(methylsulfonyl)benzamide], for which the pIC50 is 7.27.

In turn, `COc1cc(C(=O)NS(C)(=O)=O)ccc1-c1cnc(Oc2cc(Cl)ccc2C)c(Cl)c1` [Example 379, 4-(5-chloro-6-(5-chloro-2-methylphenoxy)-3-pyridinyl)-3-methoxy-N-(methylsulfonyl)benzamide] showed a negative-log IC50 (pIC50) of 7.26. This pIC50 and that of the compound before are within 0.2 log units of each other.

Take `Cc1cccc(Cl)c1Oc1ncc(-c2ccc(C(=O)NS(C)(=O)=O)cc2OC2COC2)cc1Cl` [Example 426, 4-(5-chloro-6-(2-chloro-6-methylphenoxy)-3-pyridinyl)-N-(methylsulfonyl)-3-(3-oxetanyloxy)benzamide]: the pIC50 was 7.12. This pIC50 and that of the compound before are within 0.2 log units of each other.

As for `COc1cc(C(=O)NS(C)(=O)=O)c(F)cc1-c1cnc(NCC2CC(C)(C)C2)c(Cl)c1` [Example 723, 4-(5-chloro-6-(((3,3-dimethylcyclobutyl)methyl)amino)-3-pyridinyl)-2-fluoro-5-methoxy-N-(methylsulfonyl)benzamide], the pIC50 (in-vitro Nav 1.7 PX data) is 7.13.

`Cc1ccc(Oc2ncc(-c3ccc(C(=O)NS(C)(=O)=O)cc3OC(F)F)cc2Cl)cc1Cl` [Example 449, 4-(5-chloro-6-(3-chloro-4-methylphenoxy)-3-pyridinyl)-3-(difluoromethoxy)-N-(methylsulfonyl)benzamide] showed a pIC50 of 7.10.

Regarding `Cc1cc(C(=O)NS(C)(=O)=O)c(F)cc1-c1cnc(Oc2ccc(C(F)(F)F)c(F)c2)c(Cl)c1` [Example 671, 4-(5-chloro-6-(3-fluoro-4-(trifluoromethyl)phenoxy)-3-pyridinyl)-2-fluoro-5-methyl-N-(methylsulfonyl)benzamide], the negative logarithm of the IC50 (pIC50) is 6.91.

“4-(3-Chloro-4′-Methoxy-2′-Methyl-[2,3′-Bipyridin]-5-yl)-2-Fluoro-5-Methyl-N-(Methylsulfonyl)Benzamide [Example 839]” showed a pIC50 (in-vitro Nav 1.7 PX data) of 4.89.

In the case of `CS(=O)(=O)NC(=O)c1ccc(-c2cnc(Oc3cccc4ccccc34)c(Cl)c2)c(OC2COC2)c1` [Example 419, 4-(5-chloro-6-(1-naphthalenyloxy)-3-pyridinyl)-N-(methylsulfonyl)-3-(3-oxetanyloxy)benzamide], the negative logarithm of the IC50 (pIC50) was 7.01.

As to `COc1ccc(Oc2ncc(-c3ccc(C(=O)NS(C)(=O)=O)cc3OC)cc2Cl)c(Cl)c1` [Example 365, 4-(5-chloro-6-(2-chloro-4-methoxyphenoxy)-3-pyridinyl)-3-methoxy-N-(methylsulfonyl)benzamide], the pIC50 was 7.04.

Compound `CS(=O)(=O)NC(=O)c1ccc(-c2cnc(OCCc3ccccc3)c(Cl)c2)c(OC(F)F)c1` [Example 467, 4-(5-chloro-6-(2-phenylethoxy)-3-pyridinyl)-3-(difluoromethoxy)-N-(methylsulfonyl)benzamide] had a pIC50 of 7.10.

Compound `CS(=O)(=O)NC(=O)c1cc(OC(F)F)c(-c2cnc(Oc3cc(Cl)cc(Cl)c3)c(Cl)c2)cc1F` [Example 784, 4-(5-chloro-6-(3,5-dichlorophenoxy)-3-pyridinyl)-5-(difluoromethoxy)-2-fluoro-N-(methylsulfonyl)benzamide] showed a pIC50 (in-vitro Nav 1.7 PX data) of 7.85.

For `CC[C@@H](Oc1ncc(-c2cc(F)c(C(=O)NS(C)(=O)=O)cc2OC)cc1Cl)C(F)(F)F` [Example 732, 4-(5-chloro-6-(((1R)-1-(trifluoromethyl)propyl)oxy)-3-pyridinyl)-2-fluoro-5-methoxy-N-(methylsulfonyl)benzamide, 4-(5-chloro-6-(((1S)-1-(trifluoromethyl)propyl)oxy)-3-pyridinyl)-2-fluoro-5-methoxy-N-(methylsulfonyl)benzamide], for the setting “in-vitro Nav 1.7 PX data”, the pIC50 was 6.98.

As to `COc1cc(C(=O)NS(C)(=O)=O)ccc1-c1cnc(Oc2ccc(C)c(Cl)c2)c(C#N)c1` [Example 549, 4-(6-(3-chloro-4-methylphenoxy)-5-cyano-3-pyridinyl)-3-methoxy-N-(methylsulfonyl)benzamide], the negative logarithm of the IC50 (pIC50) is 7.30.

Regarding `COc1cc(C(=O)NS(C)(=O)=O)c(F)cc1-c1cnc(Oc2cc(F)ccc2F)c(Cl)c1` [Example 706, 4-(5-chloro-6-(2,5-difluorophenoxy)-3-pyridinyl)-2-fluoro-5-methoxy-N-(methylsulfonyl)benzamide], the pIC50 (in-vitro Nav 1.7 PX data) is 6.88.

Regarding `COc1cc(C(=O)NS(C)(=O)=O)ccc1-c1cnc(Oc2ccc(C)cc2Cl)c(Cl)c1` [Example 344, 4-(5-chloro-6-(2-chloro-4-methylphenoxy)-3-pyridinyl)-3-methoxy-N-(methylsulfonyl)benzamide], the pIC50 is 7.04.

For `Cc1cc(C(=O)NS(C)(=O)=O)c(F)cc1-c1cnc(Oc2cc(Cl)cc(Cl)c2)c(C(F)(F)F)c1` [Example 817, 4-(6-(3,5-Dichlorophenoxy)-5-(Trifluoromethyl)Pyridin-3-yl)-2-Fluoro-5-Methyl-N-(Methylsulfonyl)Benzamide], the pIC50 (in-vitro Nav 1.7 PX data) was 6.77.

`Cc1cccc(Cl)c1Oc1ncc(-c2ccc(C(=O)NS(C)(=O)=O)cc2OC(F)F)cc1Cl` [Example 468, 4-(5-chloro-6-(2-chloro-6-methylphenoxy)-3-pyridinyl)-3-(difluoromethoxy)-N-(methylsulfonyl)benzamide] gave a pIC50 of 7.27.

In the case of `CC(C)COc1ncc(-c2cc(F)c(C(=O)NS(C)(=O)=O)cc2F)cc1-c1cc(F)cc(F)c1` [Example 838, 4-(5-(3,5-difluorophenyl)-6-(2-methylpropoxy)-3-pyridinyl)-2,5-difluoro-N-(methylsulfonyl)benzamide], the negative logarithm of the IC50 (pIC50) (in-vitro Nav 1.7 PX data) is 6.19.

`Cc1cc(C(=O)NS(C)(=O)=O)c(F)cc1-c1cnc(Oc2cccc3c2CCCC3)c(Cl)c1` [Example 610, 4-(5-chloro-6-(5,6,7,8-tetrahydro-1-naphthalenyloxy)-3-pyridinyl)-2-fluoro-5-methyl-N-(methylsulfonyl)benzamide] had a pIC50 of 6.98.

With `COc1cc(C(=O)NS(C)(=O)=O)ccc1-c1cnc(Oc2c(Cl)cc(C)cc2Cl)c(C#N)c1` [Example 693, 4-(5-cyano-6-(2,6-dichloro-4-methylphenoxy)-3-pyridinyl)-3-methoxy-N-(methylsulfonyl)benzamide], the pIC50 was 7.66.

Turning to `COc1cc(C(=O)NS(C)(=O)=O)c(F)cc1-c1cnc(Oc2c(Cl)cc(F)cc2Cl)c(Cl)c1` [Example 737, 4-(5-chloro-6-(2,6-dichloro-4-fluorophenoxy)-3-pyridinyl)-2-fluoro-5-methoxy-N-(methylsulfonyl)benzamide], for the setting “in-vitro Nav 1.7 PX data”, the pIC50 is 7.00.

In turn, `COc1cc(C(=O)NS(C)(=O)=O)c(F)cc1-c1cnc(Sc2ccc(C)cc2)c(Cl)c1` [Example 728, 4-(5-chloro-6-((4-methylphenyl)sulfanyl)-3-pyridinyl)-2-fluoro-5-methoxy-N-(methylsulfonyl)benzamide] showed a negative-log IC50 (pIC50) (in-vitro Nav 1.7 PX data) of 7.31.

Consider `COc1cc(C(=O)NS(C)(=O)=O)ccc1-c1cnc(Oc2ccc(C)c(Cl)c2)c(Cl)c1` [Example 329, 4-(5-chloro-6-(3-chloro-4-methylphenoxy)-3-pyridinyl)-3-methoxy-N-(methylsulfonyl)benzamide], for which the pIC50 was 7.07.

`COc1cc(C(=O)NS(C)(=O)=O)c(F)cc1-c1cnc(O[C@H](C)Cc2ccccc2)c(Cl)c1` [Example 756, 4-(5-chloro-6-((1R)-1-methyl-2-phenylethoxy)-3-pyridinyl)-2-fluoro-5-methoxy-N-(methylsulfonyl)benzamide]: for the setting “in-vitro Nav 1.7 PX data”, the pIC50 was 7.26.

Source of the values: patent US9663508B2, “Biaryl acyl-sulfonamide compounds as sodium channel inhibitors” (AMGEN INC., priority 2013, dated 2017).
